# In patent US8962666B2, “Method for improving cartilage repair and/or preventing cartilage degeneration in a joint” (Maastricht University, priority 2009, dated 2015):
# Key:
# [1] = test system: anterior cruciate ligament-transected (ACLT) knees; settings: cited from earlier work
# [2] = Parecoxib concentration in synovial joint fluid after Bio-Gel injection in Hoffa's fat pad (HPLC); type: in vivo, Wistar rats; settings: 0.1 ml Bio-Gel containing 500 μg Parecoxib in Hoffa's fat pad
# Experimental: After induction of general anaesthesia, both knees of Wistar rats were shaved and prepared for aseptic surgery. The centre of the patella tendon was identified. A 28 G needle with a 1 ml syringe was used to penetrate the centre patella tendon. Directly after the patella tendon is penetrated and 0.1 ml of the Bio-Gel containing 500 μg of Parecoxib was injected in Hoffa's fad pad. Directly after injection, 1 day, 5 days, 10 days and 30 days after injection the rats were sacrificed.
# The concentration of parecoxib in the SJF was examined using a high-performance liquid chromatography
# [3] = test system: cartilage only defect on medial femoral condyles; assay: Goat cartilage defect repair (MACI / microfracture) with Bio-Gel containing Parecoxib in Hoffa's fatpad; type: in vivo, Dutch milk goats; settings: controlled release from Hoffa's fatpad; summary statement
# Experimental: Surgical procedure: Skeletally mature Dutch milk goats were used for this study. During the first operation, both knee joints of the goats were opened using a medial parapatellar incision. Using a 8 mm in diameter dermal punch a cartilage only defect was created on both medial femoral condyles. The cartilage of both sides was minced and after an overnight collagenase treatment, cells were isolated and expanded in monolayer. […] Consequently these cells were seeded and allowed to attach in a collagen carrier for 24 hrs as described earlier as Matrix-supported Autologous Chondrocyte Implantation (MACI). Hereafter a second operation was performed. The knee joints were opened and one the cartilage defect of one knee joint was repaired using the MACI method. The defect in the other knee joint was repaired using microfracturing as described by […] et al. In 10 goats Hoffa's fatpad was injected (as described earlier) with a Bio-Gel containing 1.5 mg of Parecoxib, in 10 goats Hoffa's fatpad was injected (as described earlier) with a Bio-Gel only, and in 10 goats no injection was performed. Goats were allowed full-weight bearing after both surgical procedures. Histological evaluation: 3 months after the second operation, goats were sacrificed. […] Mankin scores for OA grading and O'Driscoll scores for cartilage repair were scored by 2 blinded individuals.
# [4] = intra-articular parecoxib injection
compound,measurement,setting,value
CCC(=O)NS(=O)(=O)c1ccc(-c2c(-c3ccccc3)noc2C)cc1 [Parecoxib],cartilage degeneration,"[1]; ACLT knees, intra-articular injection",significant inhibition
same,effect on cartilage and synovium of normal knees,"[1]; intra-articular parecoxib alone, naive rats",did not have any effect
same,glutamate and aspartate levels,[1]; [4],reduced
same,synovial inflammation,[1]; [4],suppressed
same,intra-articular level of parecoxib,[2]; after 30 days follow,remained stable
same,time of maximum parecoxib level in the SJF,[2]; time after injection,1 days
same,cartilage repair using MACI and microfracturing,[3],significantly improved
